# Measured values taken from patent publication US20070032502A1, “Quinazoline derivatives useful in cancer treatment” (Schering Corporation, priority 2005, published 2007).
# Read-outs that look alike come from different tables or passages of the source.
# Legend:
# [1] = biological target: GST-p53 DNA binding domain (aa 92-aa 312) (Homo sapiens, UniProt P04637); test: Scintillation Proximity Assay (SPA), displacement of 3H STANDARD COMPOUND; settings: for remaining activity at 2 µg/mL: 1 h
# Excerpt: Most of the oncogenic mutants of the tumor suppressor protein p53 lack sequence specific DNA binding activity at physiological temperature due to conformational changes in the DNA binding domain. Small molecules and peptide which bind to the p53 DNA binding domain stabilize the conformation and restore DNA binding activity to mutant p53 protein (Science 286, 2507-2510, 1999; PNAS, 99, 937-942, 2002). Using ^3H STANDARD COMPOUND (which is ^3H of the compound #1 of the present invention; the * Carbon atom is the one labeled; structure shown below), [drawing 2234] a radio labeled small molecule which binds to p53, and the GST-p53 DNA binding domain (aa 92-aa 312), we have developed a quantitative screening assay. The assay is based on Scintillation Proximity Assay (SPA) technology, developed by Amersham Biosciences to measure molecular interactions. Briefly, the complex of GST-p53, ^3H STANDARD and Glutathione-SPA beads (Amersham Biosciences) are incubated with mixing for 1 hr at room temperature in the presence of the novel compounds to be screened. The signal is read on Microbeta. The compounds which have the ability to displace ^3H STANDARD COMPOUND are selected. Such molecules will stabilize the conformation and restore DNA binding activity to mutant p53 protein.
# The above assay was used to determine the ability of the compounds of this invention to restore DNA binding activity to mutant p53 and the results for selected compounds have been given above in various tables.
# A letter rating corresponding to % Residual total binding (T) @ 2 ug/mL of drug (i.e., compound of the present invention) from this assay have been assigned as follows: Compounds having % Residual T values of from 0% to less than 20% have been assigned the letter “A”. Compounds having % Residual T values of from 20% to less than 40% have been assigned the letter “B”. Compounds having % Residual T values of from 40% to less than 80% have been assigned the letter “C”. Compounds having % Residual T values of 80% or higher have been assigned the letter “D”. The exact % Residual T values @ 2 ug/mL for some illustrative compounds are shown below: […]
# MB468 = test: Proliferation assay (Calcein AM viability, 72 hours); assay type: cell-based
# Procedure: This assay measures the growth suppression effects of small molecules in cells with mutant p53 vs. p53 null background. It uses Calcein AM to measure cellular viability. Cells (p53 null and mutant) are harvested and plated at 5000 cells per well in a 96-well tissue culture plate. The volume of cells in growth media is 100 µl. Serial dilutions (2× concentration) of compounds are then made and transferred to the plate of cells. The volume of compounds in the growth media is 100 μL. This dilution of compound with cells gives a 1× final dilution of compound (200 μL total volume). Plates are then incubated at 37° C. for 72 hours. Media is then poured off and Calcein AM is added at the appropriate concentration and the plates are incubated in the dark for 15 minutes and read for fluorescence. […] Compounds having EC50 values of 6 uM or higher have been assigned the letter “D”. These letter rating has been used throughout in the data tables above.
# [2] = tested on: Human tumor DLD1 cells containing mutant p53; test: Soft agar assay (colony outgrowth); assay type: cell-based; settings: DLD-1, 10-16 days
# Procedure: This method assesses the ability of cells to grow in the absence of adhesion, which is a characteristic of tumorigenic cell lines.
# Human tumor DLD1 cells containing mutant p53 are suspended in growth medium containing 0.3% agarose and an indicated concentration of small molecule. The solution is overlayed onto growth medium solidified with 0.6% agarose containing the same concentration of the small molecule as the top layer. After the top layer is solidified the plates are incubated for 10-16 days at 37° C. under 5% CO2 to allow colony outgrowth. After incubation, colonies are stained by overlaying the agar with a solution of MTT (3-[4,5-dimethyl-thiazol-2-yl]-2,5-diphenyltetrazolium bromide; Thiazolyl blue; […] in PBS). Colonies are counted to measure growth and efficacy of the small molecule.
# pancreatic cells = test: Potentiation of growth suppression with temozolomide (proliferation assay, temozolomide IC50); assay type: cell-based; settings: for IC50: Homo sapiens, TMZ alone
# Procedure: (§1) That the compounds of the present invention potentiate the growth suppression activity of temozolomide is illustrated by the fact that the compounds lower the temolozomide IC50 in various cell lines. The proliferation assay used is similar to that set forth above, and comprises the following general steps. • TMZ is diluted 2 fold in complete medium. • Cells are harvested and placed in each well with diluted TMZ. Cell conc. is 5000 cells per well in complete medium. • Appropriate concentration of compounds of present invention are then added to each well in combination with diluted TMZ. • Plates are incubated at 37° C. for 72 hrs. • Medium is poured off and 50 μL per well of Calcein AM (10 uM is added. Plate is then read in the fluorescent plate reader.
# The extent of increase can be quantitated as is shown below in FIG. 5.
# U87 = test: Potentiation of growth suppression with temozolomide (proliferation assay, temozolomide IC50), U87 glioma cells; assay type: cell-based; settings: Homo sapiens, U-87 MG, p53 wild, TMZ alone
# Procedure: as §1
# LN 18 = test: Potentiation of growth suppression with temozolomide (proliferation assay, temozolomide IC50), LN 18 glioma cells; assay type: cell-based; settings: Homo sapiens, p53 mutant, TMZ alone
# Procedure: as §1
# [3] = 2 ug/mL of drug, lower is better, read-out: SPA ASSAY % Residual T @ 2 ug/mL of drug (Average of)
# [4] = 72 h, MB468 cells, 72 hours, read-out: PROLIFERATION ASSAY EC50 MB468
# [5] = read-out: SPA ASSAY (% residual T @ 2 ug/mL of drug)
# [6] = MB468, read-out: PROLIFERATION ASSAY EC50 MB468
# GST-p53 DNA binding domain (aa 92-aa 312), sequence (P04637 92-312): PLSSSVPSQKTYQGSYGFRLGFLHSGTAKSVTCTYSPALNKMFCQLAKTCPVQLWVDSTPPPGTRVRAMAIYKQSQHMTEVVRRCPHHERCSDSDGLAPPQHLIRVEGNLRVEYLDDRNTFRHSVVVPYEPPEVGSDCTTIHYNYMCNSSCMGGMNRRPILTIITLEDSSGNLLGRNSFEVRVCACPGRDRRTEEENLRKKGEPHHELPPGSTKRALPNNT
smiles,measurement,setting,value
"CN(C)CCCNc1nc(CN2CCN(C(c3ccc(Cl)cc3)c3ccc(Cl)cc3)CC2)nc2ccccc12 [Example 1, N′-(2-{4-[BIS-(4-CHLOROPHENYL)METHYL]PIPERAZIN-1-YLMETHYL}QUINAZOLIN-4-YL)-N,N-DIMETHYLPROPANE-1,3-DIAMINE]",remaining activity at 2 µg/mL,"[1]; 2 ug/mL of drug, lower is better, read-out: % Residual T @ 2 ug/mL rating according to scintillation proximity assay (SPA)",0 to 20%
same,remaining activity at 2 µg/mL,[1]; [3],16.1%
same,EC50,"MB468; 72 h, MB468 cells, 72 hours, read-out: EC50 rating according to the proliferation assay (MB468)",< 2 µM
same,EC50,MB468; [4],1.1 µM
same,IC50,[2],0.39 µM
CN(C)CCCNc1nc(CN2CCN(Cc3cccc4ccccc34)CC2)nc2ccccc12 [Example 25-36],SPA Assay (% residual T @ 2 ug/mL of drug),[1]; 2 ug/mL of drug,B (Compounds having % Residual T values of from 20% to less than 40% have been assigned the letter “B”)
same,remaining activity at 2 µg/mL,[1]; [3],27.9%
same,sensitivity of pancreatic cancer cells to temozolomide,"pancreatic cells; in combination with temozolomide, 72 hrs",increase in sensitivity
same,EC50,MB468; [4],2 µM
same,EC50,"MB468; MB468 cells, read-out: PROFILE-RATION ASSAY EC50 MB468",4 to 6 µM
CCN(CC)C(=O)C1CCCN(c2nc(CN3CCN(C(c4ccc(Cl)cc4)c4ccc(Cl)cc4)CC3)nc3ccccc23)C1 (stereo not drawn) [Example 30-25],remaining activity at 2 µg/mL,[1]; [5],> 80%
same,EC50,MB468; [6],> 6 µM
CN(C)[C@@H]1CCN(c2nc(CN3CCN(C(c4ccc(Cl)cc4)c4ccc(Cl)cc4)CC3)nc3ccccc23)C1 [Example 30-26],remaining activity at 2 µg/mL,[1]; [5],40 to 80%
same,EC50,MB468; [6],> 6 µM
OC1CCN(c2nc(CN3CCN(C(c4ccc(Cl)cc4)c4ccc(Cl)cc4)CC3)nc3ccccc23)CC1 [Example 30-27],remaining activity at 2 µg/mL,[1]; [5],> 80%
same,EC50,MB468; [6],4 to 6 µM
NC(=O)C1CCN(c2nc(CN3CCN(C(c4ccc(Cl)cc4)c4ccc(Cl)cc4)CC3)nc3ccccc23)CC1 [Example 30-28],remaining activity at 2 µg/mL,[1]; [5],> 80%
same,EC50,MB468; [6],> 6 µM
COC(=O)C1CCN(c2nc(CN3CCN(C(c4ccc(Cl)cc4)c4ccc(Cl)cc4)CC3)nc3ccccc23)CC1 [Example 30-29],remaining activity at 2 µg/mL,[1]; [5],> 80%
same,EC50,MB468; [6],4 to 6 µM
O=c1[nH]c2ccccc2n1C1CCN(c2nc(CN3CCN(C(c4ccc(Cl)cc4)c4ccc(Cl)cc4)CC3)nc3ccccc23)CC1 [Example 30-30],remaining activity at 2 µg/mL,[1]; [5],40 to 80%
same,EC50,MB468; [6],4 to 6 µM
"Cn1nnc2c(C(N)=O)ncn2c1=O [TMZ, temozolomide]",IC50,U87,2540 µM
same,IC50,"pancreatic cells; MIA PaCa-2, Miapaca-2, Pancreas, p53 mutant",3320 µM
same,IC50,"pancreatic cells; Capan-1, Pancreas, p53 mutant",2860 µM
same,IC50,"pancreatic cells; Capan-2, Pancreas, p53 wild",4310 µM
same,IC50,LN 18,2700 µM
